According to ChEMBL document CHEMBL4800729 (2021):

Legend:
[1] = target: Inhibitor of nuclear factor kappa-B kinase subunit alpha (Homo sapiens) (UniProt O15111); test: IKKalpha(h) Millipore kinase panel; details: Compound concentration 1.0 uM
[2] = target: Muscarinic acetylcholine receptor M3 (Homo sapiens) (UniProt P20309); details: Compound concentration 10.0 uM
[3] = target: Tyrosine-protein kinase JAK2 (Homo sapiens) (UniProt O60674); test: JAK2(h) Millipore kinase panel; details: Compound concentration 1.0 uM
[4] = target: Focal adhesion kinase 1 (Homo sapiens) (UniProt Q05397); test: FAK(h Millipore kinase panel; details: Compound concentration 1.0 uM
[5] = target: Tyrosine-protein kinase HCK (Homo sapiens) (UniProt P08631); test: Hck(h) activated Millipore kinase panel; details: Compound concentration 1.0 uM
Sequence of Tyrosine-protein kinase HCK (Homo sapiens) (P08631 2-526 limits assumed): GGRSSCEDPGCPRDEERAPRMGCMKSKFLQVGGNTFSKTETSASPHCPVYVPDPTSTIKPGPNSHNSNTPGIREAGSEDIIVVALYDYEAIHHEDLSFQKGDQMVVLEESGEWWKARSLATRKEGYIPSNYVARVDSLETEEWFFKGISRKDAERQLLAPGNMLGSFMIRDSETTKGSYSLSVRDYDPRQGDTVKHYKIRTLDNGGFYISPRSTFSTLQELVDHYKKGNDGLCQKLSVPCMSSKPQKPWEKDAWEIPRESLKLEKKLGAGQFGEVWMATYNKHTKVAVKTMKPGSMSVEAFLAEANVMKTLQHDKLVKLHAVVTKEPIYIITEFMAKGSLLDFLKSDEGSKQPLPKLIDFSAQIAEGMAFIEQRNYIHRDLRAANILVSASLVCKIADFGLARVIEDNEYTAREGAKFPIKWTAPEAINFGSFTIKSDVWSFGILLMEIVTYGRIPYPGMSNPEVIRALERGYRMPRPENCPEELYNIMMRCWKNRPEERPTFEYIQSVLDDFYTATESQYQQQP

[6] = target: Serine/threonine-protein kinase ICK (Homo sapiens) (UniProt Q9UPZ9); test: ICK(h) Millipore kinase panel; details: Compound concentration 1.0 uM
[7] = target: Tyrosine-protein kinase Fer (Homo sapiens) (UniProt P16591); test: Fer(h) Millipore kinase panel; details: Compound concentration 1.0 uM
[8] = target: Serine/threonine-protein kinase/endoribonuclease IRE1 (Homo sapiens) (UniProt O75460); test: IRE1(h) Millipore kinase panel; details: Compound concentration 1.0 uM
[9] = target: Tyrosine-protein kinase Fgr (Homo sapiens) (UniProt P09769); test: Fgr(h) Millipore kinase panel; details: Compound concentration 1.0 uM
[10] = target: Serine/threonine-protein kinase pim-3 (Homo sapiens) (UniProt Q86V86); test: Pim-3(h) Millipore kinase panel; details: Compound concentration 1.0 uM
Sus scrofa = organism: Sus scrofa; test: Inhibition of ATPase, Na+/K+, Heart at compound concentration of 10.0 uM in the Eurofins-Panlabs enzyme assay (Eurofins_assay_107710); design: substrate with concentration; details: Compound concentration 10.0 uM
[11] = target: Serine/threonine-protein kinase PAK 5 (Homo sapiens) (UniProt Q9P286); test: PAK5(h) Millipore kinase panel; details: Compound concentration 1.0 uM
Sequence of Serine/threonine-protein kinase PAK 5 (Homo sapiens) (Q9P286 whole entry, looked up): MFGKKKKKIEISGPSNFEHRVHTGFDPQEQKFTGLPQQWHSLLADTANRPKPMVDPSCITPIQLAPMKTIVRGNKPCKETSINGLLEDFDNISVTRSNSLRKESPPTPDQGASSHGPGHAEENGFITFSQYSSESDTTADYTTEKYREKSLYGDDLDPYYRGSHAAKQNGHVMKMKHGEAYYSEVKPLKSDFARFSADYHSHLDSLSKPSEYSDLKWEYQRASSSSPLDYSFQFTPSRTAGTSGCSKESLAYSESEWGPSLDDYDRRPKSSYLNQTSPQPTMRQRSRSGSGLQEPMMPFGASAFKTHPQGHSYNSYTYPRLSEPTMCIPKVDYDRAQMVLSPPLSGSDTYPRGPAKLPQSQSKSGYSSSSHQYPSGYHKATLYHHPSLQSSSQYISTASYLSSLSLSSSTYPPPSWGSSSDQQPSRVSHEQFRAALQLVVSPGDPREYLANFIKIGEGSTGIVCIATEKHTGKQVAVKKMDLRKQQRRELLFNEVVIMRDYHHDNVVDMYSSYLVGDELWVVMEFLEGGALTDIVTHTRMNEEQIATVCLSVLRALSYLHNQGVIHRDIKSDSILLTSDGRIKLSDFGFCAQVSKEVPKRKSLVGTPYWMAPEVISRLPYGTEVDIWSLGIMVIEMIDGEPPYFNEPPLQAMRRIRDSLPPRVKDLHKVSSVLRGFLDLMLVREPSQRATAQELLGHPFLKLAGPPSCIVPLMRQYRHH

[12] = target: Dual specificity mitogen-activated protein kinase kinase 3 (Homo sapiens) (UniProt P46734); test: MKK3(h) Millipore kinase panel; details: Compound concentration 1.0 uM
[13] = target: Phosphodiesterase 3 (Homo sapiens) (UniProt Q14432+Q13370); test: Inhibition of Phosphodiesterase PDE3 at compound concentration of 10.0 uM in the Eurofins-Panlabs enzyme assay (Eurofins_assay_152000); format: protein assay; design: substrate with concentration 1.01 uM [3H] cAMP + cAMP, incubation time 20 min, incubation temperature 25 C; details: Compound concentration 10.0 uM
[14] = target: CDK6/cyclin D3 (Homo sapiens) (UniProt P30281+Q00534); test: CDK6/cyclinD3(h) Millipore kinase panel; format: protein-complex assay; details: Compound concentration 1.0 uM
[15] = target: Rho-associated protein kinase 1 (Homo sapiens) (UniProt Q13464); test: ROCK-I(h) Millipore kinase panel; details: Compound concentration 1.0 uM
[16] = target: Serine/threonine-protein kinase DCLK2 (Homo sapiens) (UniProt Q8N568); test: DCAMKL2(h) Millipore kinase panel; details: Compound concentration 1.0 uM
[17] = target: Receptor-interacting serine/threonine-protein kinase 1 (Homo sapiens) (UniProt Q13546); test: RIPK1(h) Millipore kinase panel; details: Compound concentration 1.0 uM
[18] = target: 5-hydroxytryptamine receptor 1D (Homo sapiens) (UniProt P28221); details: Compound concentration 10.0 uM
[19] = target: Phosphatidylinositol 3-kinase C2 domain-containing subunit gamma (Homo sapiens) (UniProt O75747); test: PI3KC2g(h) Millipore kinase panel; details: Compound concentration 1.0 uM
[20] = target: Serine/threonine-protein kinase 38-like (Homo sapiens) (UniProt Q9Y2H1); test: NDR2(h) Millipore kinase panel; details: Compound concentration 1.0 uM
[21] = target: Growth hormone secretagogue receptor type 1 (Homo sapiens) (UniProt Q92847); details: Compound concentration 10.0 uM
[22] = target: Serine/threonine-protein kinase LATS2 (Homo sapiens) (UniProt Q9NRM7); test: LATS2(h) Millipore kinase panel; details: Compound concentration 1.0 uM
Sequence of Serine/threonine-protein kinase LATS2 (Homo sapiens) (Q9NRM7 whole entry): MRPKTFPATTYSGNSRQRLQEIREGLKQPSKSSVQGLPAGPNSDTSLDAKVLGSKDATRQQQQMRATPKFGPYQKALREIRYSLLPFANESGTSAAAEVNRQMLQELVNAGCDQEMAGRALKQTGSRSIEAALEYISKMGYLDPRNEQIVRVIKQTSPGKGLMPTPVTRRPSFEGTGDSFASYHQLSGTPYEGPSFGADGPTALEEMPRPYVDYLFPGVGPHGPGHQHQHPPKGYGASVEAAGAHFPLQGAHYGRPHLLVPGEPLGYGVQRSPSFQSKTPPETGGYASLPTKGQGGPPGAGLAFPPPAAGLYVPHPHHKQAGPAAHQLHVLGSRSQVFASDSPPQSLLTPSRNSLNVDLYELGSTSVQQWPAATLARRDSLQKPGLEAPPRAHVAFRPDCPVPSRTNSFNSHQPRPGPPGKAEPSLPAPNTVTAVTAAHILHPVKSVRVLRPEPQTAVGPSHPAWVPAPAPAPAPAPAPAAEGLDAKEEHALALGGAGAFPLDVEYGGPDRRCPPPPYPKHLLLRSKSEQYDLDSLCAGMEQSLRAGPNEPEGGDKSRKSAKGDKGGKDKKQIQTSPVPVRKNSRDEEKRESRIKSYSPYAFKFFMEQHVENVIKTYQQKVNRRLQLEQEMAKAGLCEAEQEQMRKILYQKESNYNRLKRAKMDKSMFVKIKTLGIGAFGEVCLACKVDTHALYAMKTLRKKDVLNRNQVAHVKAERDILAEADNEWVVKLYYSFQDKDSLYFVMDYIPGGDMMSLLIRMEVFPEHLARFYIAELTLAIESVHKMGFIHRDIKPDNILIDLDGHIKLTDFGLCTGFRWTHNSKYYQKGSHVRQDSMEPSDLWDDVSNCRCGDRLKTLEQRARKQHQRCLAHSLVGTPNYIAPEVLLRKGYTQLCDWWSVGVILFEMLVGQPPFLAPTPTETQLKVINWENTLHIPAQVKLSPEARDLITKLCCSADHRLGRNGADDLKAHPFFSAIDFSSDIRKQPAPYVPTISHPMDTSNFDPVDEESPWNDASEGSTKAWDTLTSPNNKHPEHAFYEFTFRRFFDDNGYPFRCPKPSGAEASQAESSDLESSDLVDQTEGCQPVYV

[23] = target: Cyclin-dependent kinase-like 1 (Homo sapiens) (UniProt Q00532); test: CDKL1(h) Millipore kinase panel; details: Compound concentration 1.0 uM
[24] = target: Serine/threonine-protein kinase SIK1 (Homo sapiens) (UniProt P57059); test: SIK(h) Millipore kinase panel; details: Compound concentration 1.0 uM
[25] = target: Dual specificity tyrosine-phosphorylation-regulated kinase 2 (Homo sapiens) (UniProt Q92630); test: DYRK2(h) Millipore kinase panel; details: Compound concentration 1.0 uM
[26] = target: Monoamine oxidase A (MAO-A) (Homo sapiens, UniProt P21397); test: Inhibition of Monoamine Oxidase MAO-A at compound concentration of 10.0 uM in the Eurofins-Panlabs enzyme assay (Eurofins_assay_140010); design: substrate with concentration 50 uM Kynuramine, incubation time 60 min, incubation temperature 37 C; details: recombinant human MAO-A expressed in insect Hi5 cells, probe Kynuramine (50 uM), compound concentration 10 uM
[27] = target: Eukaryotic translation initiation factor 2-alpha kinase 3 (Homo sapiens) (UniProt Q9NZJ5); test: PEK(h) Millipore kinase panel; details: Compound concentration 1.0 uM
Sequence of Eukaryotic translation initiation factor 2-alpha kinase 3 (Homo sapiens) (Q9NZJ5 whole entry): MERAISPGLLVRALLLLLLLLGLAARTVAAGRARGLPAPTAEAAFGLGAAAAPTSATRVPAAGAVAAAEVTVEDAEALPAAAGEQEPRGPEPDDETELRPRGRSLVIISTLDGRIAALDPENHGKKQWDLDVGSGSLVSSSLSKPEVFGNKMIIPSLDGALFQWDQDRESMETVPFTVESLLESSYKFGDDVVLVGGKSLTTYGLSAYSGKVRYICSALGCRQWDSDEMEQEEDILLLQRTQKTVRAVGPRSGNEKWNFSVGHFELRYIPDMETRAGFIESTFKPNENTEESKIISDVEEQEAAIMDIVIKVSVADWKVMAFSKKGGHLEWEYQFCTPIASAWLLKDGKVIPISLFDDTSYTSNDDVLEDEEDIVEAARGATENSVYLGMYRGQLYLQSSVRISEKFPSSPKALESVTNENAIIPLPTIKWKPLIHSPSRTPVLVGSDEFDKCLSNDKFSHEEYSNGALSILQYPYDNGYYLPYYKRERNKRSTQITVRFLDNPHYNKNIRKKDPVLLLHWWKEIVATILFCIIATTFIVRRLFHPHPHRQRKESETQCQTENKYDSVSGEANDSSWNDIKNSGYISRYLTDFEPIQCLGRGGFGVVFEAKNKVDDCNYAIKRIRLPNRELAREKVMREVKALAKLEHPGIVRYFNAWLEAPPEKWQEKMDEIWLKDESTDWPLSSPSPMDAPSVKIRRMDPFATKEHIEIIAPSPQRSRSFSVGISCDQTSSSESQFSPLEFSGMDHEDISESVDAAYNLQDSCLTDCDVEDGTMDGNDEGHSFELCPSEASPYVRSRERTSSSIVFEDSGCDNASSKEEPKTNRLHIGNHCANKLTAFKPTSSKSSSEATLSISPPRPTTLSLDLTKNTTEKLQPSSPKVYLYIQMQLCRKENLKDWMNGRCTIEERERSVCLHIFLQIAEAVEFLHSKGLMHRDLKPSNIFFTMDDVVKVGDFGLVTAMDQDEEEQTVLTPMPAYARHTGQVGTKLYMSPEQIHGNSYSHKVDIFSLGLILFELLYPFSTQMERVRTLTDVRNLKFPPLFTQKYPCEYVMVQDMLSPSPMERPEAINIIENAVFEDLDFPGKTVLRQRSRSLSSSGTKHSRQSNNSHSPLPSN

[28] = target: Beta-3 adrenergic receptor (Homo sapiens) (UniProt P13945); details: Compound concentration 10.0 uM
Sequence of Beta-3 adrenergic receptor (Homo sapiens) (P13945 whole entry, looked up): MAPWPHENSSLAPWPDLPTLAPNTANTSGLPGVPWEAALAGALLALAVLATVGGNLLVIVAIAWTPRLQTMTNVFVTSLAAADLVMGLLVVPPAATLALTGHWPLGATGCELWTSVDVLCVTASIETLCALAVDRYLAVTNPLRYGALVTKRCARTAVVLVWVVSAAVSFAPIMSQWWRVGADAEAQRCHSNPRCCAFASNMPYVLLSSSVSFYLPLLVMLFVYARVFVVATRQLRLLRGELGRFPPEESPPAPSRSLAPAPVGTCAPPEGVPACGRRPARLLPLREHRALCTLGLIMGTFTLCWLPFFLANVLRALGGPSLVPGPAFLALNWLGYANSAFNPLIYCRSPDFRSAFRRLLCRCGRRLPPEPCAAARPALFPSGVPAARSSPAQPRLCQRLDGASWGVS

Rattus norvegicus = organism: Rattus norvegicus; details: Compound concentration 10.0 uM
[29] = target: 3',5'-cyclic-AMP phosphodiesterase 4D (Homo sapiens) (UniProt Q08499); test: Inhibition of Phosphodiesterase PDE4D2 at 10 µM in the Eurofins-Panlabs enzyme assay (Eurofins_assay_154420); design: substrate with concentration; details: Compound concentration 10.0 uM
[30] = target: Serine/threonine-protein kinase pim-2 (Homo sapiens) (UniProt Q9P1W9); test: Pim-2(h) Millipore kinase panel; details: Compound concentration 1.0 uM
[31] = target: Serine/threonine-protein kinase NLK (Homo sapiens) (UniProt Q9UBE8); test: NLK(h) Millipore kinase panel; details: Compound concentration 1.0 uM
[32] = target: Alpha-1A adrenergic receptor (Homo sapiens) (UniProt P35348); test: Inhibition of Adrenergic alpha1A at compound concentration of 10.0 uM in the Eurofins-Panlabs radioligand binding assay (Eurofins_assay_203110); design: ligand concentration 0.25 nM; details: Rattus norvegicus; Compound concentration 10.0 uM
Sequence of Alpha-1A adrenergic receptor (Homo sapiens) (P35348 whole entry): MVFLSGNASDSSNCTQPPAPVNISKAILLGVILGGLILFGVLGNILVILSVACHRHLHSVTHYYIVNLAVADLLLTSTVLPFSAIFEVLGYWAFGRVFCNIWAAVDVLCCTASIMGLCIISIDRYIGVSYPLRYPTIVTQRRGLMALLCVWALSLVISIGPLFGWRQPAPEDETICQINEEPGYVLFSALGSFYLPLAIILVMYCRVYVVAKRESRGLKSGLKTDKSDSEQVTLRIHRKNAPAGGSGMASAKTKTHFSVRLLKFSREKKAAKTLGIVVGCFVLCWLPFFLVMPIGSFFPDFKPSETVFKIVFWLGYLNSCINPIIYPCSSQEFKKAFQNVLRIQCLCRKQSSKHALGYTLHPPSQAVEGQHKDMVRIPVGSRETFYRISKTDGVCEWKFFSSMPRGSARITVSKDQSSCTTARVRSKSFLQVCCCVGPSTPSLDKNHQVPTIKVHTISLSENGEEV

[33] = target: Serine/threonine-protein kinase ULK2 (Homo sapiens) (UniProt Q8IYT8); test: ULK2(h) Millipore kinase panel; details: Compound concentration 1.0 uM
[34] = target: Serine/threonine-protein kinase Chk2 (Homo sapiens) (UniProt O96017); test: CHK2(h) Millipore kinase panel; details: Compound concentration 1.0 uM
[35] = target: Testis-specific serine/threonine-protein kinase 1 (Homo sapiens) (UniProt Q9BXA7); test: TSSK1(h) Millipore kinase panel; details: Compound concentration 1.0 uM
[36] = target: MAPK/MAK/MRK overlapping kinase (Homo sapiens) (UniProt Q9UQ07); test: MOK(h) Millipore kinase panel; details: Compound concentration 1.0 uM
[37] = target: Ephrin type-A receptor 5 (Homo sapiens) (UniProt P54756); test: EphA5(h) Millipore kinase panel; details: Compound concentration 1.0 uM
[38] = target: Wee1-like protein kinase (Homo sapiens) (UniProt P30291); test: WEE1(h) Millipore kinase panel; details: Compound concentration 1.0 uM
[39] = target: Death-associated protein kinase 2 (Homo sapiens) (UniProt Q9UIK4); test: DAPK2(h) Millipore kinase panel; details: Compound concentration 1.0 uM
[40] = target: Glutamate receptor 2 (Homo sapiens) (UniProt P42262); details: Rattus norvegicus; Compound concentration 10.0 uM
[41] = target: Cyclin-dependent kinase 14/Cyclin-Y (Homo sapiens) (UniProt O94921+Q8ND76); test: CDK14/cyclinY(h) Millipore kinase panel; format: protein-complex assay; details: Compound concentration 1.0 uM
[42] = target: Phosphatidylinositol 5-phosphate 4-kinase type-2 alpha (Homo sapiens) (UniProt P48426); details: Compound concentration 1.0 uM
[43] = target: [Pyruvate dehydrogenase (acetyl-transferring)] kinase isozyme 2, mitochondrial (Homo sapiens) (UniProt Q15119); test: PDHK2(h) Millipore kinase panel; details: Compound concentration 1.0 uM
[44] = target: High affinity nerve growth factor receptor (Homo sapiens) (UniProt P04629); test: TrkA(h) Millipore kinase panel; details: Compound concentration 1.0 uM

Sequence of Inhibitor of nuclear factor kappa-B kinase subunit alpha (Homo sapiens) (O15111 whole entry): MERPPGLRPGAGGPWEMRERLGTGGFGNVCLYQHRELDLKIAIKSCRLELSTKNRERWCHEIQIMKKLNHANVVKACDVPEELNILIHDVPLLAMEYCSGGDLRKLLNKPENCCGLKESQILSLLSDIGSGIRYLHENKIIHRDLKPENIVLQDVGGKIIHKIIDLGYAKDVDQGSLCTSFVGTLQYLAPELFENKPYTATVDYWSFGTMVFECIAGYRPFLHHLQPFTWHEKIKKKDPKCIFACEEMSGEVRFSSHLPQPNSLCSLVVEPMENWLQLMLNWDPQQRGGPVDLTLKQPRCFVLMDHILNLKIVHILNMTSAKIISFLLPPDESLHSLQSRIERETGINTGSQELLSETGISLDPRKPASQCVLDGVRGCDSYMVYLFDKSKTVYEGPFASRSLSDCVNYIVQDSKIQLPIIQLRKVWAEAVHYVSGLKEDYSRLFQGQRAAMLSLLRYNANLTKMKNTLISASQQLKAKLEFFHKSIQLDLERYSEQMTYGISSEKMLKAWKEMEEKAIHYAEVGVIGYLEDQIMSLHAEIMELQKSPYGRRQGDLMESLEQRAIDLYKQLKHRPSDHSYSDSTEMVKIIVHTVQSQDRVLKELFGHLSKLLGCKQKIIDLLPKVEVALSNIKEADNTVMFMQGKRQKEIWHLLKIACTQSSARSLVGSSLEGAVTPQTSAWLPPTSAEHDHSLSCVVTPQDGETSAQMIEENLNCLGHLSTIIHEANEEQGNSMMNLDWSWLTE

## CC[C@@H](Nc1c(C#N)c(-c2ccc(-c3cccc(C)c3F)cc2)nc2cnccc12)C(=O)O [BAY-091]
[1]
  inhibition: 3.94%
[2]
  inhibition: -8.52%
[3]
  inhibition: -5.62%
[4]
  inhibition: 13.3%
[5]
  inhibition: -6.21%
[6]
  inhibition: 14.8%
[7]
  inhibition: 5.23%
[8]
  inhibition: 2.72%
[9]
  inhibition: 5.05%
[10]
  inhibition: 1.67%
Sus scrofa
  inhibition: 20%
[11]
  inhibition: 1.42%
[12]
  inhibition: 12.8%
[13]
  inhibition: 74%
[14]
  inhibition: 8.28%
[15]
  inhibition: -2.77%
[16]
  inhibition: -2.01%
[17]
  inhibition: 21.2%
[18]
  inhibition: 21.2%
[19]
  inhibition: 25.4%
[20]
  inhibition: 5.88%
[21]
  inhibition: 6%
[22]
  inhibition: 1.83%
[23]
  inhibition: 4.02%
[24]
  inhibition: 13.4%
[25]
  inhibition: 19.1%
[26]
  inhibition at 60 min, 10 µM: 7% (not active)
[27]
  inhibition: 3.26%
[28]
  inhibition: -2.13%
Rattus norvegicus
  inhibition: 1%
[29]
  inhibition: 38%
[30]
  inhibition: 6.42%
[31]
  inhibition: 8.59%
[32]
  inhibition: -4%
[33]
  inhibition: 5.46%
[34]
  inhibition: 5.38%
[35]
  inhibition: 14.2%
[36]
  inhibition: 5.44%
[37]
  inhibition: 15.8%
[38]
  inhibition: 5.28%
[39]
  inhibition: -6.79%
[40]
  inhibition: -4%
[41]
  inhibition: 18.1%
[42]
  inhibition: 142%
[43]
  inhibition: 12.4%
[44]
  inhibition: 5.32%
